Entries after “also recorded” stand apart in the source; their conditions may differ. Where no end group is shown, it is not given here.

The values that follow come from article PMC6085462 (Frontiers in Microbiology, 2018).

The test system of data set [1] is Pancreatin from porcine pancreas. The data set is described as follows: pancreatin alone at a final concentration of 8 mg/mL in the intestinal electrolyte solution. The note with it: 37°C, up to 120 min.
For the next data set, the system named is pancreatin. Description: pancreatin alone in the intestinal electrolyte solution. The note with it: porcine, 37°C, up to 120 min.
The subject of data set [2] is α-chymotrypsin from bovine pancreas (EC 3.4.21.1). Description: α-chymotrypsin alone at a final concentration of 8 mg/mL in the intestinal electrolyte solution. Particulars: 37°C, up to 120 min.
For data set [3], the system named is pancreatin; trypsin. Description: Duodenal solution: 8% pancreatin, 4% porcine bile solutions and 2 mg/mL trypsin solution in intestinal electrolyte solution adjusted to pH 6.3. Particulars: 37°C, up to 120 min.
A further data set concerns pepsin; lipase. The data set is described as follows: TIM-1 gastric compartment: simulated gastric secretions containing pepsin (0.19 mg/mL) or lipase (0.25 mg/mL) in an electrolyte solution, pH 4.5 decreased gradually to 1.7. Particulars: up to 60 min.
In data set [4] the test system is pancreatin; trypsin. Description: static duodenal model: 8% pancreatin, 4% porcine bile, 2 mg/mL trypsin in intestinal electrolyte solution, pH 6.3. The note with it: bovine trypsin, 37°C, up to 120 min.
Data set [5] has as its system elastase type IIA from porcine pancreas. Description: elastase alone in the intestinal electrolyte solution. Particulars: 37°C, up to 120 min.
Data set [6] relates to elastase type IIA from porcine pancreas (EC 3.4.21.36). Description: elastase alone at a final concentration of 8 mg/mL in the intestinal electrolyte solution. Particulars: 37°C, up to 120 min.
The conditions of data set [7]: ref Kheadr et al., 2010; cited from earlier work. An excerpt: A bacteriocin is most often defined as a peptide of molecular mass mostly <10,000 Da that is inhibitory to species closely related to the producer species. Bacteriocins differ from antibiotics in being synthesized by translation of an mRNA transcript, having generally a narrow spectrum of activity and being effective at concentrations as low as nanomolar ([Nes, 2011]). Some bacteriocins may undergo post-translational modifications and as such belong to the family of ribosomally-synthesized and post-translationally-modified peptides (RiPPs) ([Arnison et al., 2013]) Their potential as antimicrob ...

For the substance GGAGHVPEYFVGIGTPISFYG, the cleaved bond result in data set [1] was “V11-G12, 0 min; also recorded: Y9-F10, major, 0 min; also recorded: F10-V11, 0 min; also recorded: I13-G14, 0 min”; with pancreatin it was “F10-V11, 0 min; also recorded: Y9-F10, 0 min; also recorded: I13-G14, 0 min”; in data set [2], “Y9-F10, major, 0 min; also recorded: F10-V11, 0 min”; in the data set with pancreatin; trypsin [3], “Y9-F10, first_seen, 0 min; also recorded: F10-V11, first_seen, 0 min; also recorded: I13-G14, first_seen, 0 min; also recorded: G12-I13, 60 min; also recorded: V11-G12, 60 min”; in the data set with pepsin; lipase, “G14-T15, 60 min”; in the data set with pancreatin; trypsin [4] it was “I13-G14, 60 min; also recorded: F10-V11, 60 min; also recorded: Y9-F10, 60 min; also recorded: Y9-F10, 120 min; also recorded: V11-G12, 120 min”. Besides, the cleaved bond result in [5] is listed as “F10-V11, 0 min; also recorded: I13-G14, 0 min; also recorded: Y9-F10, 0 min”; in [6] it was “F10-V11, 0 min; also recorded: I13-G14, major, 0 min; also recorded: Y9-F10, 0 min; also recorded: V11-G12, 0 min”.
For “pediocin PA-1 (KYYGNGVTCGKHSCSVDWGKATTCIINNGAMAWATGGHQGNHKC; ends and bridges not checked; cysteine pairing not given here; UniProt P29430 19-62, looked up) [class IIa bacteriocin]”, the “Antibacterial activity in the small intestine under gastrointestinal conditions” value in [7] was “losing completely its antibacterial activity”.
